From ChEMBL document CHEMBL6103618, “Discovery of Novel Oxazolo[4,3-f]purine Derivatives as Antitumor Agents through PPIA Interaction” (J Med Chem, 2025) come the findings set out here.

One test relates to HCT-116. The experiment in a line: Antiproliferative activity against human HCT-116 cells assessed as inhibition of cell viability incubated for 48 hrs by CCK8 assay. In kind it is functional, cell-based. The following applies: HCT-116, 48 h.
For the next test, the system named is HeLa. The experiment in a line: Antiproliferative activity against human HeLa cells assessed as inhibition of cell viability incubated for 48 hrs by CCK8 assay. In kind it is functional, cell-based.

For the compound `CCOC(=O)/C=C/N1c2nc(F)nc(Cl)c2N2C(c3ccccc3)OC(C(=O)OCC)(C(=O)OCC)C12` (racemic), the IC50 came out at 18.6 µM with HCT-116 and 18.3 µM in the test on HeLa.
Taken in the same sequence, the figures for `CCOC(=O)C1(C(=O)OCC)OC(c2ccccc2)N2c3c(Cl)nc(Cl)nc3N(/C=C/C(=O)OC(C)(C)C)C21` (racemic) were more than 50 µM and more than 50 µM.
On to `CCOC(=O)/C=C/N1c2nc(Cl)nc(Cl)c2N2C(c3ccccc3C)OC(C(=O)OCC)(C(=O)OCC)C12` (racemic), for which the half-maximal inhibitory concentration (IC50) with HCT-116 is 9.84 µM; in the test with HeLa, 12.4 µM.
Taken in the same sequence, the figures for `C=C(C(=O)OC)N1c2nc(Cl)nc(Cl)c2N2[C@@H](c3ccccc3F)OC(C(=O)OCC)(C(=O)OCC)[C@H]12` were 0.24 µM and 0.74 µM.
As to `CCOC(=O)/C=C/N1c2nc(Cl)nc(Cl)c2N2C(c3ccc4ccccc4c3)OC(C(=O)OCC)(C(=O)OCC)C12` (racemic), the half-maximal inhibitory concentration (IC50) in the test with HCT-116 and in the test with HeLa was more than 50 µM in each case.
For the compound `CCOC(=O)/C=C/N1c2nc(Cl)nc(Cl)c2N2C(c3ccc(I)cc3)OC(C(=O)OCC)(C(=O)OCC)C12` (racemic), the figures for the IC50 in the test with HCT-116 and with HeLa were 15.8 µM and more than 50 µM, respectively.
The matching figures for `CCOC(=O)/C=C/N1c2nc(Cl)nc(Cl)c2N2C(c3ccc(Cl)cc3)OC(C(=O)OCC)(C(=O)OCC)C12` (racemic): 7.14 µM and more than 50 µM.
Take `CCOC(=O)/C=C/N1c2nc(Cl)nc(Cl)c2N2C(c3ccccc3)OC(C(=O)OCC)(C(=O)OCC)C12` (racemic): the IC50 in the test on HCT-116 came out at 13.8 µM; with HeLa it was 12.3 µM.
Regarding `CCOC(=O)/C=C/N1c2nc(Cl)nc(Cl)c2N2C(c3ccccc3)OC(C(=O)OCC)C12` (racemic), the IC50 in the test with HCT-116 is 11.9 µM; with HeLa, 6.57 µM.
The matching figures for `CCOC(=O)/C=C/N1c2nc(Cl)nc(Cl)c2N2C(c3ccccc3)OC(C(=O)OC)(C(=O)OC)C12` (racemic): 6.93 µM and 12.6 µM.
The matching figures for `CCOC(=O)/C=C/N1c2nc(Cl)nc(Cl)c2N2C(c3ccccc3I)OC(C(=O)OCC)(C(=O)OCC)C12` (racemic): 3.73 µM and 10.2 µM.
As to `CCOC(=O)/C=C/N1c2nc(Cl)nc(Cl)c2N2C(c3cccc(F)c3)OC(C(=O)OCC)(C(=O)OCC)C12` (racemic), the IC50 with HCT-116 was 5.1 µM; in the test with HeLa, 6.72 µM.
Taken in the same sequence, the figures for `CCOC(=O)/C=C/N1c2ncncc2N2C(c3ccccc3)OC(C(=O)OCC)(C(=O)OCC)C12` (racemic) were more than 50 µM and more than 50 µM.
The matching figures for `CCOC(=O)/C=C/N1c2nc(Cl)nc(Cl)c2N2C(c3cccc(Br)c3)OC(C(=O)OCC)(C(=O)OCC)C12` (racemic): 7.92 µM and 11.7 µM.
Taken in the same sequence, the figures for `CCOC(=O)/C=C/N1c2nc(Cl)nc(Cl)c2N2C(c3ccccc3)OC(COS(=O)(=O)c3ccc(C)cc3)(COS(=O)(=O)c3ccc(C)cc3)C12` (racemic) were more than 50 µM and more than 50 µM.
With `CCOC(=O)/C=C/N1c2nc(Cl)nc(Cl)c2N2C(c3ccc(C)cc3)OC(C(=O)OCC)(C(=O)OCC)C12` (racemic), the IC50 was 20.7 µM in the test with HCT-116 and 43.7 µM in the test with HeLa.
Take `CCOC(=O)/C=C/N1c2nc(Cl)nc(Cl)c2N2C(c3cccc4ccccc34)OC(C(=O)OCC)(C(=O)OCC)C12` (racemic): the IC50 in the test on HCT-116 and in the test on HeLa was more than 50 µM throughout.
Take `C=C(C(=O)OC)N1c2nc(Cl)nc(Cl)c2N2C(c3ccccc3)OC(C(=O)OCC)(C(=O)OCC)C12` (racemic): the results for the IC50 in the test with HCT-116 and with HeLa were 2.18 µM and 2.36 µM, respectively.
The matching figures for `CCOC(=O)/C=C/N1c2nc(Cl)nc(Cl)c2N2C(c3cccc([N+](=O)[O-])c3)OC(C(=O)OCC)(C(=O)OCC)C12` (racemic): 4.33 µM and 6.52 µM.
On to `CCOC(=O)C1(C(=O)OCC)OC(c2ccccc2)N2c3c(Cl)nc(Cl)nc3N(/C=C/C(=O)OCc3ccccc3)C21` (racemic), for which the concentration for half-maximal inhibition (IC50) in the test on HCT-116 and in the test on HeLa was more than 50 µM in each case.
For `CCOC(=O)/C=C/N1c2nc(Cl)nc(Cl)c2N2C(c3ccc(C)c(C)c3)OC(C(=O)OCC)(C(=O)OCC)C12` (racemic), the results for the concentration for half-maximal inhibition (IC50) with HCT-116 and with HeLa were 14.9 µM and 1.92 µM, respectively.
Turning to `CCOC(=O)/C=C/N1c2nc(Cl)nc(Cl)c2N2C(c3cccc(C(F)(F)F)c3)OC(C(=O)OCC)(C(=O)OCC)C12` (racemic), the half-maximal inhibitory concentration (IC50) in the test with HCT-116 came to 3.56 µM; in the test with HeLa it was 10 µM.
On to `CCOC(=O)/C=C/N1c2nc(Cl)nc(Cl)c2N2C(c3ccccc3F)OC(C(=O)OCC)(C(=O)OCC)C12` (racemic), for which the IC50 in the test on HCT-116 was determined as 2.19 µM; in the test with HeLa, 2.12 µM.
Taken in the same sequence, the figures for `CCOC(=O)/C=C/N1c2nc(Cl)nc(Cl)c2N2C(c3ccc(Cl)c(Cl)c3)OC(C(=O)OCC)(C(=O)OCC)C12` (racemic) were 10.9 µM and 16.4 µM.
The matching figures for `CCOC(=O)/C=C/N1c2nc(Cl)nc(Cl)c2N2C(c3ccc(C(F)(F)F)cc3)OC(C(=O)OCC)(C(=O)OCC)C12` (racemic): 7.13 µM and more than 50 µM.
Taken in the same sequence, the figures for `CCOC(=O)/C=C/N1c2nc(Cl)nc(Cl)c2N2C(c3ccc(-c4ccccn4)cc3)OC(C(=O)OCC)(C(=O)OCC)C12` (racemic) were 21.7 µM and more than 50 µM.
Consider `CCOC(=O)/C=C/N1c2nc(Cl)nc(Cl)c2N2C(c3cccc(C)c3)OC(C(=O)OCC)(C(=O)OCC)C12` (racemic), for which the figures for the half-inhibitory concentration (IC50) in the test with HCT-116 and with HeLa were 10.4 µM and 26.2 µM, respectively.
Taken in the same sequence, the figures for `CCOC(=O)/C=C/N1c2nc(Cl)nc(Cl)c2N2C(c3ccccc3C(F)(F)F)OC(C(=O)OCC)(C(=O)OCC)C12` (racemic) were 3.29 µM and 4.95 µM.
On to `C=C(C(=O)OCC)N1c2nc(Cl)nc(Cl)c2N2C(c3ccccc3F)OC(C(=O)OCC)(C(=O)OCC)C12` (racemic), for which the IC50 turned out to be 0.82 µM with HCT-116 and 0.55 µM in the test with HeLa.
For `C=C(C(=O)OCC)N1c2nc(Cl)nc(Cl)c2N2C(c3ccccc3)OC(C(=O)OCC)(C(=O)OCC)C12` (racemic), the values for the IC50 in the test with HCT-116 and with HeLa were 2.5 µM and 1.74 µM, respectively.
Taken in the same sequence, the figures for `C=C(C(=O)OCC)N1c2nc(Cl)nc(Cl)c2N2C(c3ccccc3Cl)OC(C(=O)OCC)(C(=O)OCC)C12` (racemic) were 2.47 µM and 2.8 µM.
Consider `CCOC(=O)C1(C(=O)OCC)OC(c2ccccc2)N2c3c(Cl)nc(Cl)nc3N(/C=C/C(=O)OC)C21` (racemic), for which the IC50 worked out at 14.2 µM in the test with HCT-116 and 11.2 µM in the test with HeLa.
Taken in the same sequence, the figures for `CCOC(=O)/C=C/N1c2ncnc(OC)c2N2C(c3ccccc3)OC(C(=O)OCC)(C(=O)OCC)C12` (racemic) were more than 50 µM and more than 50 µM.
Regarding `CCOC(=O)/C=C/N1c2nc(Cl)nc(Cl)c2N2C(c3ccc([N+](=O)[O-])cc3)OC(C(=O)OCC)(C(=O)OCC)C12` (racemic), the IC50 in the test on HCT-116 is 4.94 µM; in the test on HeLa, 9.73 µM.
As to `CCOC(=O)/C=C/N1c2nc(Cl)nc(Cl)c2N2C(c3cccs3)OC(C(=O)OCC)(C(=O)OCC)C12` (racemic), the concentration for half-maximal inhibition (IC50) in the test with HCT-116 and in the test on HeLa was more than 50 µM in each case.
Regarding `C=C(C(=O)OC)N1c2nc(Cl)nc(Cl)c2N2[C@H](c3ccccc3F)OC(C(=O)OCC)(C(=O)OCC)[C@@H]12`, the IC50 is 0.65 µM in the test with HCT-116 and 0.47 µM with HeLa.
The matching figures for `CCOC(=O)/C=C/N1c2nc(Cl)nc(Cl)c2N2C(c3ccc(Br)cc3)OC(C(=O)OCC)(C(=O)OCC)C12` (racemic): 9.32 µM and 13.7 µM.
Regarding `CCOC(=O)/C=C/N1c2nc(Cl)nc(Cl)c2N2C(c3ccccc3Br)OC(C(=O)OCC)(C(=O)OCC)C12` (racemic), the IC50 in the test on HCT-116 amounted to 3.41 µM; in the test with HeLa, 3.15 µM.
In the case of `CCOC(=O)/C=C/N1c2ncnc(Cl)c2N2C(c3ccccc3)OC(C(=O)OCC)(C(=O)OCC)C12` (racemic), the half-maximal inhibitory concentration (IC50) in the test on HCT-116 is 34 µM; in the test on HeLa, more than 50 µM.
Taken in the same sequence, the figures for `C=C(C(=O)OCC)N1c2nc(Cl)nc(Cl)c2N2C(c3ccccc3Br)OC(C(=O)OCC)(C(=O)OCC)C12` (racemic) were 6.16 µM and 4.78 µM.
Taken in the same sequence, the figures for `CCOC(=O)/C=C/N1c2nc(Cl)nc(Cl)c2N2C(c3ccccc3)OC(C(=O)OCc3ccccc3)(C(=O)OCc3ccccc3)C12` (racemic) were more than 50 µM and more than 50 µM.
The matching figures for `CCOC(=O)/C=C\N1c2nc(Cl)nc(Cl)c2N2C(c3ccccc3)OC(C(=O)OCC)(C(=O)OCC)C12` (configuration not stated): more than 50 µM and more than 50 µM.
Regarding `CCOC(=O)/C=C/N1c2nc(Cl)nc(Cl)c2N2C(c3cccc(Cl)c3)OC(C(=O)OCC)(C(=O)OCC)C12` (racemic), the half-inhibitory concentration (IC50) in the test with HCT-116 turned out to be 7.36 µM; in the test with HeLa, 16.6 µM.
Take `CCCSc1ncnc2c1N1C(c3ccccc3)OC(C(=O)OCC)(C(=O)OCC)C1N2/C=C/C(=O)OCC` (racemic): the concentration for half-maximal inhibition (IC50) in the test with HCT-116 and with HeLa was more than 50 µM throughout.
With `CCOC(=O)/C=C/N1c2nc(Cl)nc(Cl)c2N2C(c3cc(OC)c(OC)c(OC)c3)OC(C(=O)OCC)(C(=O)OCC)C12` (racemic), the values for the half-maximal inhibitory concentration (IC50) in the test on HCT-116 and with HeLa were 14 µM and more than 50 µM, respectively.
The matching figures for `CCOC(=O)/C=C/N1c2nc(Cl)nc(Cl)c2N2C(c3ccccc3Cl)OC(C(=O)OCC)(C(=O)OCC)C12` (racemic): 2.7 µM and 3.55 µM.
The matching figures for `CCCSc1nc(Cl)nc2c1N1C(c3ccccc3)OC(C(=O)OCC)(C(=O)OCC)C1N2/C=C/C(=O)OCC` (racemic): more than 50 µM and more than 50 µM.
On to `CCOC(=O)/C=C/N1c2nc(Cl)nc(Cl)c2N2C(c3cccc(OC)c3)OC(C(=O)OCC)(C(=O)OCC)C12` (racemic), for which the values for the half-inhibitory concentration (IC50) in the test with HCT-116 and in the test with HeLa were 20.7 µM and 45.9 µM, respectively.
Taken in the same sequence, the figures for `CCOC(=O)/C=C/N1c2nc(Cl)nc(OC)c2N2C(c3ccccc3)OC(C(=O)OCC)(C(=O)OCC)C12` (racemic) were more than 50 µM and more than 50 µM.
Turning to `CCOC(=O)/C=C/N1c2nc(Cl)nc(N)c2N2C(c3ccccc3)OC(C(=O)OCC)(C(=O)OCC)C12` (racemic), the 50% inhibitory concentration (IC50) with HCT-116 and in the test with HeLa was more than 50 µM each time.
Take `CCOC(=O)/C=C/N1c2nc(Cl)nc(Cl)c2N2C(c3ccc(F)cc3)OC(C(=O)OCC)(C(=O)OCC)C12` (racemic): the IC50 in the test on HCT-116 came out at 6.97 µM; in the test with HeLa, 7.16 µM.
